≈ marks a conversion by molar mass, not a printed value.
Columns and labels:
IL-6 = IL-6 levels in murine pneumonia model; type: in vivo, mice; details: inhaled, 40 and 80 mg/kg; IL-6 measured from kidney tissue specimens (FIG. 5)
Description: (§1) IL-6 was measured from kidney tissue specimens.

P. aeruginosa = assay: Drug combinations of CSAs and anti-pathogenic substances (synergy); type: cell-based
Description: Following the protocols outlined in Appl. Microbiol. Biotechnol., 2010 (September) pp. 251-63 and Chemotherapy, 2011 (November), Vol. 57, pp. 505-10, drug combinations involving CSAs and anti-pathogenic substances are performed.

P. aeruginosa (PAO1) [1] = assay: MIC against infection-model strain; type: cell-based
P. aeruginosa (PAO1) [2] = assay: Animal model of lung infection, bacterial counts in lung tissue; type: in vivo, mice; details: for elimination of the bacterial burden: 80 mg/kg via nebulization; for reduction in bacterial burden: 80 mg/kg via nebulization four hours after infection
Description: In vivo studies were designed to allow observation of both tolerance for CSAs and effectiveness of the antimicrobial in reducing bacterial burden. An infection model was used in which mice were inoculated with P. aeruginosa (PAO1) intra-nasally (10^5 CFU) to establish an infection. […] Two doses were used: 40 and 80 mg/kg. […] After 24 h, the mice were euthanized, and lung tissues were homogenized. Bacterial counts were determined by serial dilution, plating on nutrient agar, incubation, and colony counting. As a comparator, tobramycin was administered via the same route, and P. aeruginosa counts were determined.
as §1

[3] = test system: inflammatory cells around bronchioles in lungs; assay: Murine lung histology in pneumonia model; type: in vivo, mice; details: 4 hours post challenge with Pseudomonas PA01
Description: In this experiment, mice were infected with 10^8 PA01 strain of Pseudomonas, representing a murine pneumonia model. […] The CSA treatment was administered 4 hours post challenge with Pseudomonas.

Pseudomonas aeruginosa = assay: Assessment of bacterial resistance by serial exposure, MIC; type: cell-based; details: serial passages (FIG. 2)
Source text: (§2) A central consideration in the development of novel antimicrobials is potential generation of bacterial resistance. […] See Pollard J E, et al. J. Antimicrob. Chemother. 2012, 67, 2665-2672 (describing experimental protocol).

Staphylococcus aureus = assay: as above; type: cell-based; details: after 30 serial passages
Source text: as §2

[4] = test system: tobramycin-resistant P. aeruginosa strains; assay: MIC against tobramycin resistant strains (cross-resistance); type: cell-based; details: seven tobramycin resistant P. aeruginosa strains (FIG. 3)
Source text: Tobramycin is commonly used in reducing the bacterial burden in the lungs of cystic fibrosis patients. However, resistance to tobramycin is often observed among P. aeruginosa isolates. Tobramycin resistance is typically achieved by acylation or phosphorylation of the primary amine groups in the antibiotic.
Similar studies can be conducted for other drug-resistant pathogenic strains following this standard experimental protocol.

For `CCCCCCCCNCCC[C@@H](C)[C@H]1CC[C@H]2[C@@H]3[C@H](OCCCN)C[C@@H]4C[C@H](OCCCN)CC[C@]4(C)[C@H]3C[C@H](OCCCN)[C@]12C` [CSA-13], the IL-6 levels (IL-6) was “reduced”, the synergy (P. aeruginosa; combined with ciprofloxaxin) was “Additional synergies were observed” and the synergy (P. aeruginosa; combined with tobramycin) was “Additional synergies were observed”. The synergistic result (P. aeruginosa; in combination with colistin, against P. aeruginosa) was 54%, the MIC (P. aeruginosa (PAO1) [1]) was 2.5 µg/mL (≈ 3.69 µM) and the “drop in bacterial counts” value (P. aeruginosa (PAO1) [2]; 40 mg/kg via nebulization four hours after infection, lung counts after 24 h) was “two”. The “elimination of the bacterial burden” value (P. aeruginosa (PAO1) [2]) was 99.99%, the “reduction in bacterial burden” value (P. aeruginosa (PAO1) [2]; lung counts after 24 h) was “greater than four” and the Pseudomonas load (P. aeruginosa (PAO1) [2]; inhaled, 40 and 80 mg/kg, murine pneumonia model (FIG. 5)) was “reduced”. For the same compound, the “inflammatory cells in lung histology” value ([3]; 40 mg/kg dose) was “substantial reduction of inflammatory cells”, the “inflammatory cells in lung histology” value ([3]; 80 mg/kg dose) was “even greater reduction in inflammatory cells” and the “MIC at which the rise appeared to level off” value (Pseudomonas aeruginosa) was roughly 20 µg/mL (≈ 29.5 µM). For the same compound, the “change in Minimum Inhibitory Concentration (MIC)” value (Staphylococcus aureus) was “no significant change” and the “susceptibility of tobramycin resistant strains” value [4] was “all strains were comparably susceptible”.

With `CC[C@H]1OC(=O)[C@H](C)[C@@H](O[C@H]2C[C@@](C)(OC)[C@@H](O)[C@H](C)O2)[C@H](C)[C@@H](O[C@@H]2O[C@H](C)C[C@H](N(C)C)[C@H]2O)[C@](C)(O)C[C@@H](C)C(=O)[C@H](C)[C@@H](O)[C@]1(C)O` [erythromycin, reference compound] the “reduction of the MIC of erythromycin” value (P. aeruginosa; CSA-13 administered with erythromycin) was 92%.

`NC[C@H]1O[C@H](O[C@H]2[C@H](O)[C@@H](O[C@H]3O[C@H](CO)[C@@H](O)[C@H](N)[C@H]3O)[C@H](N)C[C@@H]2N)[C@H](N)C[C@@H]1O` [tobramycin, reference compound] was tested, and the “elimination of the bacterial burden” value (P. aeruginosa (PAO1) [2]) was 99.99%, the “reduction in bacterial burden” value (P. aeruginosa (PAO1) [2]; lung counts after 24 h) was “greater than four” and the “susceptibility of tobramycin resistant strains” value [4] was “varied significantly”.

— patent publication US12653832B2, “Methods for treating lung infections and inflammation” (BRIGHAM YOUNG UNIVERSITY, priority 2013, dated 2026)
